Laboratory results reported in article PMC6561244 (Proceedings of the National Academy of Sciences of the …, 2019).

Target: T1, CKL4 (Arabidopsis thaliana, UniProt Q8LPI7)
T1 sequence (Q8LPI7 1-414): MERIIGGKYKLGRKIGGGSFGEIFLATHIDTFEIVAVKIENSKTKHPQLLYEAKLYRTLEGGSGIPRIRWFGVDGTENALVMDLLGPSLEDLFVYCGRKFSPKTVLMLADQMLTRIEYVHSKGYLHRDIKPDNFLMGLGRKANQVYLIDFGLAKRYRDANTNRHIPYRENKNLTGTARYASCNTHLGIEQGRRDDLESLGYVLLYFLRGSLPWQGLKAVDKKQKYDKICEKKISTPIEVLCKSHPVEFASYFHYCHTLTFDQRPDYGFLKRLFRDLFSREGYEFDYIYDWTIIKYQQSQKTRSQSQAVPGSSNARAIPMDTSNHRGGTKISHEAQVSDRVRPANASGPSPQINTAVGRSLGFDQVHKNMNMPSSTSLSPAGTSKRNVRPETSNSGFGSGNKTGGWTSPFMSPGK
Experiment: in vitro kinase assay with isotope-labeled ATP
Format: biochemical

- IC50: ~5 µM
Structure (SMILES): O=C1NCCc2[nH]c(-c3ccncc3)cc21 [PHA767491]
